# Patent US9090659B2, “RHAMM binding peptides” (London Health Sciences Centre Research Inc., priority 2010, dated 2015)
# Ends that are not written are not given here. Peptide text beside a SMILES is read from it.
# System: ascites-derived human EOC cells
# Test: Cell viability (alamarBlue) of ascites-derived human EOC cells
# Assay type: cell-based
# Conditions: 7 and 0.7 uM, re-dosing everyday up to 6 days; p<0.05
# Method: The ability of one RHAMM-binding peptide (SEQ ID NO: 1) to limit the proliferation of patient derived epithelial ovarian cancer tumors and the ability of another RHAMM-binding peptide (SEQ ID NO: 3) to reduce the viability of ascites-derived human EOC cells were examined. In these assays, epithelial ovarian cancer cells (derived from ascites of patients) were plated in a 96-well plate at density 5,000 cells/well and allowed to grow for 24 hours at 37° C. and 5% CO2. Peptides (1 uM and 10 uM) were added to cells on day one and proliferation was measured for 6 days. 1/10th volume of Alamar Blue reagent was added directly to cells in culture medium everyday for six days. Fluorescence was read at 570/590 nm. Data were obtained from mean of two experiments. Cells treated with just DMSO (dimethylsulfoxide) and “no-cell” control samples were included in the experiment.
# Primary cells from patient sample EOC were seeded to a 24-well culture dish and 24 hours later treatment was initiated with the RHAMM-binding peptide SEQ ID NO: 3 (7 and 0.7 uM concentrations) or DMSO vehicle control. Re-dosing occurred everyday for up to 6 days and cell viability was assessed by fluorometry using alamarBlue™ reagent (measured in fluorescence units, FU).
row,Compound,viability of EOC cells (fluorescence units)
1,SEQ ID NO: 3: synthetic αIIIc tubulin CTT peptide containing EEXEEZ motif (SVEAEAEEGEEY),reduced viability

# Biological target: T1, RHAMM (Mus musculus, UniProt Q00547)
# T1 construct: Profinity eXact tag; made in house; host or cells: E. coli BL21 (D3), plasmid pPAL7-RHAMM
# Test: KD (nM)
# Conditions: not given
# Text: Table printed on a drawing sheet, FIG. 2 B
# Head of the field: KD (nM)
# The patent's description of the figure: FIG. 2 A illustrate the general structure of (a) unmodified tubulin-derived peptides, (b) tubulin-derived peptides conjugated to N-acetyl cysteine, and (c) tubulin-derived peptides conjugated to fluorescein isothiocyanate.
# FIG. 2 B is a table of 17 synthesized tubulin-derived peptides, including peptides derivatized with fluorescein or N-acetyl cysteine, tubulin fragment type, calculated and observed mass spectrometry m/z values (m is representative of molecular or atomic mass and z is representative of the number of elementary charges carried by the ion), percent purity and binding constant Kd. FIG. 2 B discloses SEQ ID NOs: 1, 24-25, 2-3, 26-27, 4-9, 28-29, 10-11, 30-31, 12, 32-33, 13-14, 34-35 and 15-17, respectively, in order of appearance.
# FIG. 2 B is a table which describes all 17 peptides prepared for this study. Sequences of 17 synthesized peptides encompass the CTTs of different tubulin subtypes as well as sequences directly flanking α1a- (SEQ ID NOs: 6, 7 and 8) and βIIIa-CTT (SEQ ID NOs: 13 and 14). […]
# First copying reader's note: The table is continued on the next sheet (printed: continued on page 4/20).
# Where the first naming reader finds the target: patent_title: RHAMM binding peptides
row,Kd [nM],Compound
1,< 1000,"C[C@H](NC(=O)[C@H](CO)NC(=O)[C@@H](N)CC(=O)O)C(=O)N[C@@H](CC(=O)O)C(=O)NCC(=O)N[C@@H](CCC(=O)O)C(=O)N[C@@H](CC(=O)O)C(=O)N[C@@H](CCC(=O)O)C(=O)NCC(=O)N[C@@H](CCC(=O)O)C(=O)N[C@@H](CCC(=O)O)C(=O)N[C@@H](Cc1ccc(O)cc1)C(N)=O [SEQ ID NO. 2 | 2, Alpha Ia CTT (438-449)] (H-DSADGEDEGEEY-NH2; N-terminus assumed)"
2,331,"CC(C)[C@H](NC(=O)[C@@H](N)CO)C(=O)N[C@@H](CCC(=O)O)C(=O)N[C@@H](C)C(=O)N[C@@H](CCC(=O)O)C(=O)N[C@@H](C)C(=O)N[C@@H](CCC(=O)O)C(=O)N[C@@H](CCC(=O)O)C(=O)NCC(=O)N[C@@H](CCC(=O)O)C(=O)N[C@@H](CCC(=O)O)C(=O)N[C@@H](Cc1ccc(O)cc1)C(N)=O [SEQ ID NO. 3 | 3a, Alpha IIIc CTT (439-450)] (H-SVEAEAEEGEEY-NH2; N-terminus assumed)"

# Biological target: T2, RHAMM (Mus musculus, UniProt Q00547)
# T2 construct: Profinity eXact tag; made in house; host or cells: E. coli BL21 (D3), plasmid pPAL7-RHAMM
# T2 sequence (Q00547 706-766): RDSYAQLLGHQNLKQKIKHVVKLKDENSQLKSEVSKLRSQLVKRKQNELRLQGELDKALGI
# Test: SPR binding assay for kinetic constants, RHAMM flowed over immobilized peptides (GWC SPRimager II)
# Conditions: peptide immobilized on sensor plate; RHAMM 500, 750, 1000 nM; 1:1 Langmuir binding model
# Method: After peptide screening, […] system was used to determine binding kinetic constants. Thiol-containing peptides at 1 nM concentration in milliQ water were immobilized on a maleimide-functionalized gold-plated chip for 3 hours. Excess peptides were removed by washing with milliQ water. For binding studies, a series of concentrations (500 nM, 750 nM, and 1000 nM) of RHAMM were injected over the immobilized peptides. After a 15 min dissociation phase, the sensor chip surface was regenerated for the next peptide sample injection, via treatment with two 10 min pulse injections of regenerating buffer (2 M NaCl in HBS-EP, pH 7.4) at […]. Baseline returned to the initial value after the regeneration step, confirming the removal of all bound analytes. Data were analyzed and the corresponding dissociation constants (KD) were obtained via non-linear regression fitting to a Langmuir binding model. In all experiments, reference subtraction was performed using data obtained from reference plate (no peptide) and peptide functionalized plate. The binding of the six peptides deduced in the previous section to RHAMM was quantified. Truncation studies indicate that the CTTs (i.e. the last 12 carboxy-terminal residues of S-peptides), were sufficient to induce MAP-directed microtubule assembly, thus placing a label spaced by a linker moiety on the amino terminus of CTT should not affect the peptide-protein interaction. Peptides were immobilized on the sensor plate and RHAMM was flowed over derivatized surface at different concentrations at a constant flow rate of 100 μL/min. FIG. 4 A depicts the resulting sensograms. Again, each sensograms has been corrected by subtracting each curve from a reference sensorgram (data acquired from the sensorgram without immobilized peptide) in order to account for refractive index differences between running buffer and sample solutions. Experimental sensograms were fitted with curves resulting from a kinetic model for a 1:1 Langmuir binding model. […]
row,Kd [nM],Compound
1,24,CC(C)[C@H](N)C(=O)N[C@@H](CCC(=O)O)C(=O)NCC(=O)N[C@@H](CCC(=O)O)C(=O)NCC(=O)N[C@@H](CCC(=O)O)C(=O)N[C@@H](CCC(=O)O)C(=O)N[C@@H](CCC(=O)O)C(=O)NCC(=O)N[C@@H](CCC(=O)O)C(=O)N[C@@H](CCC(=O)O)C(=O)N[C@@H](Cc1ccc(O)cc1)C(N)=O [SEQ ID NO: 1] (H-VEGEGEEEGEEY-NH2)
2,32,C[C@H](NC(=O)[C@H](CCC(=O)O)NC(=O)[C@H](CCC(=O)O)NC(=O)[C@H](CCC(=O)O)NC(=O)[C@H](C)NC(=O)[C@H](CCC(=O)O)NC(=O)[C@H](CCC(=O)O)NC(=O)CNC(=O)[C@H](Cc1ccccc1)NC(=O)[C@H](CC(=O)O)NC(=O)[C@H](CCC(=O)O)NC(=O)[C@@H](N)CCC(=O)O)C(N)=O [SEQ ID NO: 9] (H-EEDFGEEAEEEA-NH2)
3,30,CSCC[C@H](NC(=O)[C@H](CC(N)=O)NC(=O)[C@H](CO)NC(=O)[C@H](CCC(=O)O)NC(=O)[C@H](C)NC(=O)[C@H](CCC(=O)O)NC(=O)[C@@H](NC(=O)[C@@H](N)Cc1ccccc1)[C@@H](C)O)C(=O)N[C@@H](CC(N)=O)C(=O)N[C@@H](CC(=O)O)C(=O)N[C@@H](CC(C)C)C(=O)N[C@H](C(N)=O)C(C)C [SEQ ID NO: 14] (H-FTEAESNMNDLV-NH2)

# Biological target: T2, RHAMM
# Test: SPR-based screening of tubulin-derived peptides against immobilized RHAMM (ProteON XPR36)
# Assay type: binding
# Conditions: peptides 10 μM injected over immobilized RHAMM
# Method: ProteON XPR36 system was used for the selection and ranking of different tubulin derived peptides against RHAMM. For immobilization of RHAMM, the ProteON GLC sensor chip surfaces were activated by amine coupling using 100 mM EDAC and 24 mM sulfo-NHS. RHAMM (30 μg/mL in sodium bicarbonate buffer, pH 9.7) was injected at a flow a rate of 30 μl/min. A buffer sample was injected on a different sensor plate for use as a reference. Ethanolamine HCl (1M, pH 8.5) was then injected to deactivate any remaining surface groups. Peptides (10 μM in PBS-T, 2% DMSO) were injected to a RHAMM functionalized surface at 50 μL/min for 3 minutes followed by a 10 minute dissociation (i.e. injection of PBS-T buffer) period. The surfaces were regenerated using two injections of 30 μL of 1M NaCl prior to the injection of the next peptide. In all experiments, reference subtraction was performed using data obtained from reference plate (No RHAMM) and RHAMM functionalized plate.
# A SPR (surface plasmon resonance)-based screening method was utilized for rapid and accurate determination of potential peptide candidates that are able to recognize the HA-binding domain of RHAMM. Seventeen tubulin-derived peptides were screened, and the resulting sensograms were used to deduce peptides which show affinity to RHAMM. Prior to screening, the optimal condition for ligand immobilization, in this instance RHAMM, to the sensor plate was determined. The optimal pH for the immobilization buffer balances the electrostatic attraction of the protein to the sensor plate while minimizing protein deactivation. In this study the optimal pH for immobilization was determined to be the pH that yielded the highest ligand density. RHAMM was coupled to the sensor plate using sodium bicarbonate buffer of varying pH, at a flow rate of 30 μL/min and with fixed concentration of EDAC and sulfo-NHS. The RHAMM ligand density for each pH immobilization condition was determined from the average SPR response of six measurements and the maximum ligand immobilization occurred at pH 9.7 (FIG. 3 A). Ligand immobilization was slightly lower than pH 10.1 due in part to loss of net charge on RHAMM at its isoelectric point.
# After immobilization of RHAMM on the SPR sensor chip, injection of a series of tubulin derived peptides was carried out. Association of the peptides with RHAMM proceeded for 3 minutes and the dissociation in analyte free buffer was carried out for 10 minutes. […] For each peptide injection, control sensograms (no immobilized RHAMM and buffer injection) were subtracted from the test sensograms, and the chip surface was regenerated prior to the next peptide injection in order to remove any remaining bound peptides.
row,affinity to RHAMM in SPR screening,Compound
1,failed the initial screening,SEQ ID NO: 2: synthesized tubulin-derived 12-residue peptide containing DEXEEZ motif (DSADGEDEGEEY)
2,enhanced affinity to RHAMM,SEQ ID NO: 3: synthetic αIIIc tubulin CTT peptide containing EEXEEZ motif (SVEAEAEEGEEY)
3,failed the initial screening,SEQ ID NO: 4: synthesized tubulin-derived 12-residue peptide containing DEXEEZ motif (IDSYEDEDEGEE)
4,failed the initial screening,SEQ ID NO: 10: synthesized tubulin-derived 12-residue peptide containing EEXEDZ motif (GEFEEEEGEDEA)
5,enhanced affinity to RHAMM,SEQ ID NO: 11: synthetic βIV-CTT tubulin peptide containing EEXEEZ motif (GEFEEEAEEEVA-NH2)
6,enhanced affinity to RHAMM,SEQ ID NO: 12: synthesized tubulin-derived 12-residue peptide of FIG. 2B (EAFEDEEEEIDG)
